How the values were obtained:
H460 = assay: CCK8 cell viability assay, H460; format: cell-based, Human; settings: for IC50: H460, 48 h, CCK8, mean ± SE
Description: (§1) At first, CCK8 assay was carried out to evaluate the anti-proliferative activity of dolutegravir-1,2,3-triazole derivatives against different cancer cell lines. The results of cell viability of three lung cancer cell lines A549, PC-9 and H460 in the presence of compounds 9 and 10 are summarized in Table 2. Cells were treated with different compounds at the concentration of 20 µM for 48 h. […] Human lung cancer cell lines A549, PC-9 and H460 were all obtained from ATCC. Cells were cultured in DMEM or RPMI 1640 medium containing 10% FBS and 1% penicillin/streptomycin at 37 °C with a 5% CO2-humidified atmosphere. CCK8 assay was used to measure cell viability. Cells with a density of 1 × 10^4 cells/well were seeded on the 96-well plates. After adhesion, cells were treated with different diluted compounds or vehicle control DMSO and continue cultured for 48 h. Then, CCK8 reagent was added for one hour incubation at 37 °C with 5% of CO2. Absorbance was measured using a microplate spectrophotometer (Thermo) at 450 nm. The ratio of cell viability of control was taken as 100%. […] Then IC50 of the compounds were investigated using the prism statistical software.

[1] = set-up: method as in PMID 35111871; settings: preclinical study, dose 27 times greater than the clinical dose; cited from earlier work
PC-9 = assay: CCK8 cell viability assay, PC-9; format: cell-based, Human; settings: for IC50: PC9, 48 h, CCK8, mean ± SE
Description: as §1

A549 = assay: CCK8 cell viability assay, A549; format: cell-based, Human; settings: for IC50: A549, 48 h, CCK8, mean ± SE
Description: as §1

[2] = test system: HRM (Human Renal Mesangial) cell line; assay: CCK8 cell viability assay, HRM normal cells (toxicity control); format: cell-based; settings: HRM normal human cells, 48 h, CCK8, mean ± SE
Description: Based on these preliminary results, compounds 9c, 9e, 9f, 9i, 9k, 9 L, 9p, 9q, 9t, 9u, 9v, 9w, 10c, 10e which were effective to most of the cell lines were chosen for the measurement of the half-maximal inhibitory concentration (IC50). […] HRM (Human Renal Mesangial) cell line was used as a control to study the toxicity of these compounds against normal human cells.
CCK8 assay was used to measure cell viability. Cells with a density of 1 × 10^4 cells/well were seeded on the 96-well plates. After adhesion, cells were treated with different diluted compounds or vehicle control DMSO and continue cultured for 48 h. Then, CCK8 reagent was added for one hour incubation at 37 °C with 5% of CO2. Absorbance was measured using a microplate spectrophotometer (Thermo) at 450 nm. The ratio of cell viability of control was taken as 100%. […] Then IC50 of the compounds were investigated using the prism statistical software.

[3] = H460, 20 µM, 48 h, CCK8, control = 100%
[4] = PC9, 20 µM, 48 h, CCK8, control = 100%
[5] = A549, 20 µM, 48 h, CCK8, control = 100%

| SMILES | IC50 (H460) | IC50 (PC-9) | IC50 (A549) | viability at 20 µM (H460; Homo sapiens, NCI-H460, H460, 20 µM, 48 h, CCK8, control = 100%) | fertility and teratogenic toxicity [1] | viability at 20 µM (PC-9; Homo sapiens, PC-9, PC9, 20 µM, 48 h, CCK8, control = 100%) | viability at 20 µM (A549; Homo sapiens, A549, 20 µM, 48 h, CCK8, control = 100%) | IC50 [2] | Cell viability (100%) (H460; [3]) | Cell viability (100%) (PC-9; [4]) | Cell viability (100%) (A549; [5]) |
| --- | --- | --- | --- | --- | --- | --- | --- | --- | --- | --- | --- |
| C[C@@H]1CCO[C@H]2Cn3cc(C(=O)NCc4ccc(F)cc4F)c(=O)c(O)c3C(=O)N12 [DTG, Dolutegravir] | – | – | – | 27.2% | no obvious fertility toxicity or teratogenic toxicity | 91.7% | 109% | – | – | – | – |
| COc1c2n(cc(C(=O)Nc3cccc(-c4cn(-c5cccc(C)c5)nn4)c3)c1=O)C[C@@H]1OCC[C@@H](C)N1C2=O [Compound 9f] | 19.6 ± 0.32 µM | 4.67 ± 0.26 µM | 27.8 ± 0.56 µM | – | – | – | – | > 50 µM | 39.20% | 8.80% | 33.47% |
| COc1cccc(-n2cc(-c3cccc(NC(=O)c4cn5c(c(OC)c4=O)C(=O)N4[C@H](C)CCO[C@H]4C5)c3)nn2)c1 [Compound 9 L] | 25.5 ± 0.43 µM | 9.2 ± 0.65 µM | 44.3 ± 1.21 µM | – | – | – | – | 43.3 ± 3.27 µM | 20.32% | 47.77% | 73.36% |

More lines, in order of falling IC50 (H460), values ahead:

| IC50 (H460) | IC50 (PC-9) | IC50 (A549) | SMILES | viability at 20 µM (H460; Homo sapiens, NCI-H460, H460, 20 µM, 48 h, CCK8, control = 100%) | fertility and teratogenic toxicity [1] | viability at 20 µM (PC-9; Homo sapiens, PC-9, PC9, 20 µM, 48 h, CCK8, control = 100%) | viability at 20 µM (A549; Homo sapiens, A549, 20 µM, 48 h, CCK8, control = 100%) | IC50 [2] | Cell viability (100%) (H460; [3]) | Cell viability (100%) (PC-9; [4]) | Cell viability (100%) (A549; [5]) |
| --- | --- | --- | --- | --- | --- | --- | --- | --- | --- | --- | --- |
| 16.2 ± 1.29 µM | 11.6 ± 0.48 µM | > 50 µM | COc1c2n(cc(C(=O)Nc3cccc(-c4cn(-c5ccccc5Cl)nn4)c3)c1=O)C[C@@H]1OCC[C@@H](C)N1C2=O [Compound 9v] | – | – | – | – | > 50 µM | 38.13% | 47.42% | 54.06% |
| 14.2 ± 0.16 µM | 6.75 ± 1.43 µM | 17.3 ± 0.73 µM | COc1ccccc1-n1cc(-c2cccc(NC(=O)c3cn4c(c(OC)c3=O)C(=O)N3[C@H](C)CCO[C@H]3C4)c2)nn1 [Compound 9t] | – | – | – | – | > 50 µM | 3.27% | 4.56% | 7.32% |
| 9.44 ± 1.53 µM | 10.1 ± 0.71 µM | > 50 µM | COc1c2n(cc(C(=O)Nc3cccc(-c4cn(Cc5cccc(Br)c5)nn4)c3)c1=O)C[C@@H]1OCC[C@@H](C)N1C2=O [Compound 10e] | – | – | – | – | > 50 µM | 28.88% | 49.85% | 96.13% |
| 8.24 ± 2.06 µM | 4.53 ± 0.31 µM | 11.1 ± 1.07 µM | COc1c2n(cc(C(=O)Nc3cccc(-c4cn(-c5ccccc5OC(F)(F)F)nn4)c3)c1=O)C[C@@H]1OCC[C@@H](C)N1C2=O [Compound 9i] | – | – | – | – | > 50 µM | 8.52% | 18.95% | 17.41% |
